Experimental data reported in US5705509A, “Tricyclic heterocyclic compounds as 5-HT4 receptor antagonists” (SmithKline Beecham plc, priority 1993, dated 1998).

Molecular target: T1, 5-HT4 receptor (Cavia porcellus, UniProt O70528)
T1 construct: Longitudinal muscle-myenteric plexus preparations, approximately 3 cm long, are obtained from the distal colon region; from tissue; host or cells: guinea-pig distal colon, longitudinal muscle-myenteric plexus
Assay: Guinea pig colon 5-HT4 receptor antagonist activity (reduction of 5-HT evoked contraction of longitudinal muscle-myenteric plexus)
Conditions: distal colon longitudinal muscle-myenteric plexus; contraction evoked by 5-HT; methiothepin 10^-7 M and granisetron 10^-6 M present; n=4; read-out: pIC50 (-log concentration of antagonist which reduces the contraction by 50%) (converted)
Description: Male guinea-pigs, weighing 250-400 g are used. Longitudinal muscle-myenteric plexus preparations, approximately 3 cm long, are obtained from the distal colon region. These are suspended under a 0.5 g load in isolated tissue baths containing Krebs solution bubbled with 5% CO2 in O2 and maintained at 37° C. In all experiments, the Krebs solution also contains methiothepin 10^-7 M and granisetron 10^-6 M to block effects at 5-HT1, 5-HT2 and 5-HT3 receptors.
After construction of a simple concentration-response curve with 5-HT, using 30s contact times and a 15 min dosing cycle, a concentration of 5-HT is selected so as to obtain a contraction of the muscle approximately 40-70% maximum(10^-9 M approx). The tissue is then alternately dosed every 15 min with this concentration of 5-HT and then with an approximately equi-effective concentration of the nicotine receptor stimulant, dimethylphenylpiperazinium (DMPP). After obtaining consistent responses to both 5-HT and DMPP, increasing concentrations of a putative 5-HT4 receptor antagonist are then added to the bathing solution. The effects of this compound are then determined as a percentage reduction of the contractions evoked by 5-HT or by DMPP. […] A compound which reduces the response to 5-HT but not to DMPP is believed to act as a 5-HT4 receptor antagonist.

T1 sequence (O70528 whole entry): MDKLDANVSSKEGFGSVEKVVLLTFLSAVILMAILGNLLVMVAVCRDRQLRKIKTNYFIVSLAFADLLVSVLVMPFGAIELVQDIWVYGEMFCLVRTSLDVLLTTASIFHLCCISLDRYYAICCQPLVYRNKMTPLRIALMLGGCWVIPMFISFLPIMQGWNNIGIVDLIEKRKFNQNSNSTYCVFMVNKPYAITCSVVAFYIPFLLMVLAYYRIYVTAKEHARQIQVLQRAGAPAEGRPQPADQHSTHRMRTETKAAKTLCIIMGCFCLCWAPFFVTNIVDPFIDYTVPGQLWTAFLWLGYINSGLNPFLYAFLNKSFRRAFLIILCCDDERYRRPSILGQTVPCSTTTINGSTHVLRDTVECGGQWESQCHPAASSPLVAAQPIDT

- IC50: 0.166 µM
Compound: CCCCN1CCC(COC(=O)c2cc3[nH]cnc3c3c2OCCO3)CC1 [Example 1, (1-Butyl-4-piperidinyl)methyl 1 H-7,8-dihydro-[1,4]-dioxino[2,3-g]benzimidazole-5-carboxylate]
